From patent publication US6376497B1, “Antifungal azole derivatives having a fluorinated vinyl group and process for preparing same” (Korea Research Institute of Chemical Technology, priority 1999, dated 2002)
≈ marks a conversion by molar mass, not a printed value.

Key:
Assay in all cases: In vitro antifungal activity, microbroth dilution MIC
Assay type in all cases: cell-based
[1] = test system: Candida parapsitosis A. 7330; details: 4 to 48 hours; for Minimal inhibitory concentration (MIC): C. parapsitosis A. 7330, RPMI-1640, 35° C.; for Minimal inhibitory concentration(MIC), C. parapsitosis A. 7330: RPMI-1640, 35° C., no growth observed
In short: (§1)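 Broth microdilution adapted from NCCLS M27, in RPMI-1640 with 0.165 M MOPS, pH 7.0. Yeast or mould inoculum at 2×10^3 CFU/ml was mixed 1:1 with DMSO-derived compound solutions (200 to 0.10 μg/ml before mixing) and incubated at 35 °C for 4 to 48 h. MIC was the concentration showing no growth.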

Candida krusei K. 11655 = details: 4 to 48 hours; for Minimal inhibitory concentration (MIC): C. krusei K. 11655, RPMI-1640, 35° C.; for Minimal inhibitory concentration(MIC), C. krusei K. 11655: RPMI-1640, 35° C., no growth observed
In short: as §1

[2] = test system: Candida pseudotropicalis K. 11658; details: 4 to 48 hours; for Minimal inhibitory concentration (MIC): C. pseudotropicalis K. 11658, RPMI-1640, 35° C.; for Minimal inhibitory concentration(MIC), C. pseudotropicalis K. 11658: RPMI-1640, 35° C., no growth observed
In short: as §1

[3] = test system: Candida albicans IFO. 1385; details: 4 to 48 hours; for Minimal inhibitory concentration (MIC): C. albicans IFO. 1385, RPMI-1640, 35° C.; for Minimal inhibitory concentration(MIC), C. albicans IFO. 1385: RPMI-1640, 35° C., no growth observed
In short: as §1

[4] = test system: Trichophyton mentagrophytes B. 32663; details: 4 to 48 hours; for Minimal inhibitory concentration (MIC): T. mentagrophytes B. 32663, RPMI-1640, 35° C.; for Minimal inhibitory concentration(MIC), T. mentagrophytes B. 32663: RPMI-1640, 35° C., no growth observed
In short: as §1

Candida albicans C1-2 = details: 4 to 48 hours; for Minimal inhibitory concentration (MIC): C. albicans C1-2, RPMI-1640, 35° C.; for Minimal inhibitory concentration(MIC), C. albicans C1-2: RPMI-1640, 35° C., no growth observed
In short: as §1

[5] = test system: Cryptococcus neoformans B. 42419; details: 4 to 48 hours; for Minimal inhibitory concentration (MIC): Cry. neoformans B. 42419, RPMI-1640, 35° C.; for Minimal inhibitory concentration(MIC), Cry. neoformans B. 42419: RPMI-1640, 35° C., no growth observed
In short: as §1

[6] = test system: Aspergillus furnigatus B. 19119; details: 4 to 48 hours; for Minimal inhibitory concentration (MIC): A furnigatus B. 19119, RPMI-1640, 35° C.; for Minimal inhibitory concentration(MIC), A furnigatus B. 19119: RPMI-1640, 35° C., no growth observed
In short: as §1

[7] = test system: Candida albicans A. 10231; details: 4 to 48 hours; for Minimal inhibitory concentration (MIC): C. albicans A. 10231, RPMI-1640, 35° C.; for Minimal inhibitory concentration(MIC), C. albicans A. 10231: RPMI-1640, 35° C., no growth observed
In short: as §1

[8] = test system: Candida tropicalis A. 13803; details: 4 to 48 hours; for Minimal inhibitory concentration (MIC): C. tropicalis A. 13803, RPMI-1640, 35° C.; for Minimal inhibitory concentration(MIC), C. tropicalis A. 13803: RPMI-1640, 35° C., no growth observed
In short: as §1

[9] = test system: Aspergillus niger A. 16404; details: 4 to 48 hours; for Minimal inhibitory concentration (MIC): A. niger A. 16404, RPMI-1640, 35° C.; for Minimal inhibitory concentration(MIC), A. niger A. 16404: RPMI-1640, 35° C., no growth observed
In short: as §1

[10] = test system: Trichophyton mentagrophytes A. 9129; details: 4 to 48 hours; for Minimal inhibitory concentration (MIC): T. mentagrophytes A. 9129, RPMI-1640, 35° C.; for Minimal inhibitory concentration(MIC), T. mentagrophytes A. 9129: RPMI-1640, 35° C., no growth observed
In short: as §1

[11] = test system: Torulopsis glabrata B. 16205; details: 4 to 48 hours; for Minimal inhibitory concentration (MIC): T. glabrata B. 16205, RPMI-1640, 35° C.; for Minimal inhibitory concentration(MIC), T. glabrata B. 16205: RPMI-1640, 35° C., no growth observed
In short: as §1

[12] = test system: Cryptococcus neoformans IFM. 40092; details: 4 to 48 hours; for Minimal inhibitory concentration (MIC): Cry. neoformans IFM. 40092, RPMI-1640, 35° C.; for Minimal inhibitory concentration(MIC), Cry. neoformans IFM. 40092: RPMI-1640, 35° C., no growth observed
In short: as §1

[13] = test system: Cryptococcus neoformans A. 34144; details: 4 to 48 hours; for Minimal inhibitory concentration (MIC): Cry. neoformans A. 34144, RPMI-1640, 35° C.; for Minimal inhibitory concentration(MIC), Cry. neoformans A. 34144: RPMI-1640, 35° C., no growth observed
In short: as §1

For `FC(=Cc1ccccc1)OC[C@H]1CO[C@](Cn2ccnc2)(c2ccc(Cl)cc2Cl)O1` (relative stereo) [Example 1, (E&Z) 1-[cis-2-(2,4-dichlorophenyl)-2-(1H-1-imidazolylmethyl)-1,3-dioxolan-4-ylmethoxy]-1-fluoro-2-phenyl-1-ethene], the “Minimal inhibitory concentration (MIC)” value [1] was 6.25 µg/mL (≈ 13.9 µM), the “Minimal inhibitory concentration (MIC)” value (Candida krusei K. 11655) was 6.25 µg/mL (≈ 13.9 µM) and the “Minimal inhibitory concentration (MIC)” value [2] was 6.25 µg/mL (≈ 13.9 µM). For the same molecule, the “Minimal inhibitory concentration (MIC)” value [3] was 3.13 µg/mL (≈ 6.97 µM), the “Minimal inhibitory concentration (MIC)” value [4] was 0.20 µg/mL (≈ 0.445 µM) and the “Minimal inhibitory concentration (MIC)” value (Candida albicans C1-2) was 25.0 µg/mL (≈ 55.6 µM). For the same molecule, the “Minimal inhibitory concentration (MIC)” value [5] was 0.39 µg/mL (≈ 0.868 µM), the “Minimal inhibitory concentration (MIC)” value [6] was 1.56 µg/mL (≈ 3.47 µM) and the “Minimal inhibitory concentration (MIC)” value [7] was 25.0 µg/mL (≈ 55.6 µM). For the same molecule, the “Minimal inhibitory concentration (MIC)” value [8] was 50.0 µg/mL (≈ 111 µM), the “Minimal inhibitory concentration (MIC)” value [9] was 1.56 µg/mL (≈ 3.47 µM) and the “Minimal inhibitory concentration (MIC)” value [10] was “≦0.10 μg/ml”. The “Minimal inhibitory concentration (MIC)” value [11] was 25.0 µg/mL (≈ 55.6 µM), the “Minimal inhibitory concentration (MIC)” value [12] was 0.20 µg/mL (≈ 0.445 µM) and the “Minimal inhibitory concentration (MIC)” value [13] was 0.39 µg/mL (≈ 0.868 µM).
For `FC(=Cc1ccc(F)cc1)OCC1COC(Cn2ccnc2)(c2ccc(Cl)cc2Cl)O1` (stereo not drawn) [Ex. 16], the “Minimal inhibitory concentration (MIC)” value [1] was 6.25 µg/mL (≈ 13.4 µM), the “Minimal inhibitory concentration (MIC)” value (Candida krusei K. 11655) was 6.25 µg/mL (≈ 13.4 µM) and the “Minimal inhibitory concentration (MIC)” value [2] was 3.13 µg/mL (≈ 6.7 µM). For the same molecule, the “Minimal inhibitory concentration (MIC)” value [3] was 0.78 µg/mL (≈ 1.67 µM), the “Minimal inhibitory concentration (MIC)” value [4] was 1.56 µg/mL (≈ 3.34 µM) and the “Minimal inhibitory concentration (MIC)” value (Candida albicans C1-2) was 6.25 µg/mL (≈ 13.4 µM). For the same molecule, the “Minimal inhibitory concentration (MIC)” value [5] was 1.56 µg/mL (≈ 3.34 µM), the “Minimal inhibitory concentration (MIC)” value [6] was 3.13 µg/mL (≈ 6.7 µM) and the “Minimal inhibitory concentration (MIC)” value [7] was 12.5 µg/mL (≈ 26.7 µM). For the same molecule, the “Minimal inhibitory concentration (MIC)” value [8] was 25.0 µg/mL (≈ 53.5 µM), the “Minimal inhibitory concentration (MIC)” value [9] was 3.13 µg/mL (≈ 6.7 µM) and the “Minimal inhibitory concentration (MIC)” value [10] was 1.56 µg/mL (≈ 3.34 µM). The “Minimal inhibitory concentration (MIC)” value [11] was 6.25 µg/mL (≈ 13.4 µM), the “Minimal inhibitory concentration (MIC)” value [12] was 0.39 µg/mL (≈ 0.835 µM) and the “Minimal inhibitory concentration (MIC)” value [13] was 1.56 µg/mL (≈ 3.34 µM).
For `Cc1cccc(C(=C(F)N2CCN(c3ccc(OCC4COC(Cn5ccnc5)(c5ccc(Cl)cc5Cl)O4)cc3)CC2)C(F)(F)F)c1` (mixture of isomers) [Ex. 125], the “Minimal inhibitory concentration(MIC), C. parapsitosis A. 7330” value [1] was >100 µg/mL, the “Minimal inhibitory concentration(MIC), C. krusei K. 11655” value (Candida krusei K. 11655) was >100 µg/mL and the “Minimal inhibitory concentration(MIC), C. pseudotropicalis K. 11658” value [2] was >100 µg/mL. The “Minimal inhibitory concentration(MIC), C. albicans IFO. 1385” value [3] was 1.56 µg/mL, the “Minimal inhibitory concentration(MIC), T. mentagrophytes B. 32663” value [4] was 3.13 µg/mL and the “Minimal inhibitory concentration(MIC), C. albicans C1-2” value (Candida albicans C1-2) was 25.0 µg/mL. For the same molecule, the “Minimal inhibitory concentration(MIC), Cry. neoformans B. 42419” value [5] was 3.13 µg/mL, the “Minimal inhibitory concentration(MIC), A furnigatus B. 19119” value [6] was >100 µg/mL and the “Minimal inhibitory concentration(MIC), C. albicans A. 10231” value [7] was 25.0 µg/mL. The “Minimal inhibitory concentration(MIC), C. tropicalis A. 13803” value [8] was 100 µg/mL, the “Minimal inhibitory concentration(MIC), A. niger A. 16404” value [9] was >100 µg/mL and the “Minimal inhibitory concentration(MIC), T. mentagrophytes A. 9129” value [10] was 6.25 µg/mL. The “Minimal inhibitory concentration(MIC), T. glabrata B. 16205” value [11] was 50.0 µg/mL, the “Minimal inhibitory concentration(MIC), Cry. neoformans IFM. 40092” value [12] was 0.39 µg/mL and the “Minimal inhibitory concentration(MIC), Cry. neoformans A. 34144” value [13] was 1.56 µg/mL.
With `COc1cccc(C=C(F)Oc2ccc(OCC3COC(Cn4ccnc4)(c4ccc(Cl)cc4Cl)O3)cc2)c1` (mixture of isomers) [Ex. 90] the “Minimal inhibitory concentration(MIC), C. parapsitosis A. 7330” value [1] was >100 µg/mL, the “Minimal inhibitory concentration(MIC), C. krusei K. 11655” value (Candida krusei K. 11655) was >100 µg/mL and the “Minimal inhibitory concentration(MIC), C. pseudotropicalis K. 11658” value [2] was >100 µg/mL. For the same molecule, the “Minimal inhibitory concentration(MIC), C. albicans IFO. 1385” value [3] was 12.5 µg/mL, the “Minimal inhibitory concentration(MIC), T. mentagrophytes B. 32663” value [4] was 50.0 µg/mL and the “Minimal inhibitory concentration(MIC), C. albicans C1-2” value (Candida albicans C1-2) was 100 µg/mL. For the same molecule, the “Minimal inhibitory concentration(MIC), Cry. neoformans B. 42419” value [5] was 6.25 µg/mL, the “Minimal inhibitory concentration(MIC), A furnigatus B. 19119” value [6] was >100 µg/mL and the “Minimal inhibitory concentration(MIC), C. albicans A. 10231” value [7] was 100 µg/mL. For the same molecule, the “Minimal inhibitory concentration(MIC), C. tropicalis A. 13803” value [8] was >100 µg/mL, the “Minimal inhibitory concentration(MIC), A. niger A. 16404” value [9] was >100 µg/mL and the “Minimal inhibitory concentration(MIC), T. mentagrophytes A. 9129” value [10] was 50.0 µg/mL. The “Minimal inhibitory concentration(MIC), T. glabrata B. 16205” value [11] was 100 µg/mL, the “Minimal inhibitory concentration(MIC), Cry. neoformans IFM. 40092” value [12] was 0.78 µg/mL and the “Minimal inhibitory concentration(MIC), Cry. neoformans A. 34144” value [13] was 12.5 µg/mL.
